Reference: PubChem BioAssay AID248 (DTP/NCI, 2004)
Where “and” joins values, the source holds several entries; their conditions need not be identical. Equal values may be shown once. Inconclusive results and toxic doses are left out. No stated cut-off is given here; in the data, active means T/C of 150% or more; inactive means T/C below 125%.

System: L1210 leukemia ip in BDF1 mice, survival T/C
Assay: NCI In Vivo Anticancer Drug Screen. Data for tumor model L1210 Leukemia (intraperitoneal) in B6D2F1 (BDF1) mice
Details: endpoint: mean survival time, higher = longer survival
In short: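 Tumor cells were implanted, animals were treated, and survival was followed. The result divides the treated measurement by the vehicle-control measurement.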

[1] = dose: 50.0 mg/kg/injection, schedule: Q01DX001 (ip), vehicle: saline
[2] = dose: 100.0 mg/kg/injection, schedule: Q01DX001 (ip), vehicle: saline
[3] = dose: 200.0 mg/kg/injection, schedule: Q01DX001 (ip), vehicle: saline
[4] = dose: 400.0 mg/kg/injection, schedule: Q01DX001 (ip), vehicle: saline
[5] = dose: 100.0 mg/kg/injection, schedule: Q01DX009 (ip), vehicle: Klucel (hydroxypropylcellulose) (HPC)
[6] = dose: 100.0 mg/kg/injection, schedule: Q04DX003 (ip), vehicle: Klucel (hydroxypropylcellulose) (HPC)
[7] = dose: 200.0 mg/kg/injection, schedule: Q01DX009 (ip), vehicle: Klucel (hydroxypropylcellulose) (HPC)
[8] = dose: 200.0 mg/kg/injection, schedule: Q04DX003 (ip), vehicle: Klucel (hydroxypropylcellulose) (HPC)
[9] = dose: 400.0 mg/kg/injection, schedule: Q01DX009 (ip), vehicle: Klucel (hydroxypropylcellulose) (HPC)
[10] = dose: 400.0 mg/kg/injection, schedule: Q04DX003 (ip), vehicle: Klucel (hydroxypropylcellulose) (HPC)
[11] = dose: 100.0 mg/kg/injection, schedule: Q01DX001 (ip), vehicle: carboxymethylcellulose (CMC)
[12] = dose: 200.0 mg/kg/injection, schedule: Q01DX001 (ip), vehicle: carboxymethylcellulose (CMC)
[13] = dose: 400.0 mg/kg/injection, schedule: Q01DX001 (ip), vehicle: carboxymethylcellulose (CMC)
[14] = dose: 100.0 mg/kg/injection, schedule: Q01DX009 (ip), vehicle: saline with Tween-80
[15] = dose: 200.0 mg/kg/injection, schedule: Q01DX009 (ip), vehicle: saline with Tween-80
[16] = dose: 400.0 mg/kg/injection, schedule: Q04DX002 (ip), vehicle: saline with Tween-80
[17] = dose: 50.0 mg/kg/injection, schedule: Q01DX009 (ip), vehicle: saline
[18] = dose: 100.0 mg/kg/injection, schedule: Q01DX009 (ip), vehicle: saline
[19] = dose: 100.0 mg/kg/injection, schedule: Q04DX003 (ip), vehicle: saline
[20] = dose: 200.0 mg/kg/injection, schedule: Q01DX009 (ip), vehicle: saline
[21] = dose: 200.0 mg/kg/injection, schedule: Q04DX003 (ip), vehicle: saline
[22] = dose: 400.0 mg/kg/injection, schedule: Q04DX003 (ip), vehicle: saline
[23] = dose: 100.0 mg/kg/injection, schedule: Q04DX003 (ip), vehicle: saline with Tween-80
[24] = dose: 200.0 mg/kg/injection, schedule: Q04DX003 (ip), vehicle: saline with Tween-80

Measured: T/C

NC(N)=NCCN1C(c2ccccc2)C1c1ccccc1 (stereo unspecified)
inactive: dose: 12.5 mg/kg/injection, schedule: Q04DX002 (ip), vehicle: saline with Tween-80 107 % of control | dose: 25.0 mg/kg/injection, schedule: Q04DX002 (ip), vehicle: saline with Tween-80 103 % of control | dose: 50.0 mg/kg/injection, schedule: Q04DX002 (ip), vehicle: saline with Tween-80 100 % of control

CCCCN(CCCC)C(=O)CC(C)(O)c1ccccc1 (stereo unspecified)
inactive: [1] 96 % of control | [2] 107 % of control | [3] 94 % of control | [4] 96 % of control

C[N+](C)(C)c1ccc(N2C(=O)C3C4c5ccccc5C(C3C2=O)[n+]2ccccc24)cc1 (stereo unspecified)
inactive: dose: 1.56 mg/kg/injection, schedule: Q01DX009 (ip), vehicle: Klucel (hydroxypropylcellulose) (HPC) 103 % of control | dose: 3.12 mg/kg/injection, schedule: Q01DX009 (ip), vehicle: Klucel (hydroxypropylcellulose) (HPC) 97 % of control | dose: 6.25 mg/kg/injection, schedule: Q01DX009 (ip), vehicle: Klucel (hydroxypropylcellulose) (HPC) 100 % of control | dose: 12.5 mg/kg/injection, schedule: Q04DX003 (ip), vehicle: saline 101 % of control | dose: 25.0 mg/kg/injection, schedule: Q04DX003 (ip), vehicle: saline 94 % of control

C=CCOc1ccc2c(C)cc(=O)oc2c1C
inactive: dose: 100.0 mg/kg/injection, schedule: Q01DX008 (ip), vehicle: Klucel (hydroxypropylcellulose) (HPC) 93 % of control | [5] 94 % of control | [6] 96 % of control | dose: 200.0 mg/kg/injection, schedule: Q01DX008 (ip), vehicle: Klucel (hydroxypropylcellulose) (HPC) 88 % of control | [7] 96 % of control | [8] 96 % of control | dose: 400.0 mg/kg/injection, schedule: Q01DX008 (ip), vehicle: Klucel (hydroxypropylcellulose) (HPC) 86 % of control | [9] 97 % of control | [10] 96 % of control

CCC1([N+](=O)[O-])COP(=O)(NCc2cccnc2)OC1 (stereo unspecified)
inactive: [11] 92 % of control | [12] 101 % of control | [13] 116 % of control

CCCCOC(=O)C1OC1c1ccccc1 (stereo unspecified)
inactive: [14] 88 % of control | dose: 100.0 mg/kg/injection, schedule: Q04DX002 (ip), vehicle: saline with Tween-80 90 % of control | [15] 95 % of control | dose: 200.0 mg/kg/injection, schedule: Q04DX002 (ip), vehicle: saline with Tween-80 88 % of control | dose: 400.0 mg/kg/injection, schedule: Q01DX009 (ip), vehicle: saline with Tween-80 95 % of control | [16] 102 % of control

CCCCCCCCCCCCCC[As](=O)(O)CCCCCCCCCCCCCC
inactive: [1] 103 % of control | [2] 101 % of control | [3] 101 % of control | [4] 95 % of control

CC(=O)Nc1nnc(Sc2ccc([N+](=O)[O-])cc2[N+](=O)[O-])s1
inactive: [5] 95 % of control | [7] 95 % of control | [9] 100 % of control

O=S(=O)(/C=C/c1ccccc1)N1CCCCC1
inactive: [2] 103 % of control | [3] 102 % of control | [4] 102 % of control

c1c[nH]cn1
inactive: [17] 93 % of control | [18] 101 % of control and 90 % of control | [19] 97 % of control | [20] 96 % of control and 90 % of control | [21] 97 % of control | dose: 400.0 mg/kg/injection, schedule: Q01DX009 (ip), vehicle: saline 103 % of control | [22] 94 % of control

N#CCCC(=O)c1ccncc1
inactive: [23] 96 % of control | [24] 107 % of control | dose: 400.0 mg/kg/injection, schedule: Q04DX003 (ip), vehicle: saline with Tween-80 104 % of control

N/C(=N\O)c1ccc(Cl)cc1
inactive: [23] 104 % of control | [24] 98 % of control

O=C(Nc1ccc(C(=O)O)cc1)Nc1ccccc1F
inactive: dose: 50.0 mg/kg/injection, schedule: Q01DX009 (ip), vehicle: Klucel (hydroxypropylcellulose) (HPC) 93 % of control | [5] 104 % of control

c1ccc(-c2cnc(-c3ccccc3)cn2)cc1
inactive: dose: 25.6 mg/kg/injection, schedule: Q04DX002 (ip), vehicle: saline with Tween-80 112 % of control | dose: 64.0 mg/kg/injection, schedule: Q04DX002 (ip), vehicle: saline with Tween-80 96 % of control | dose: 160.0 mg/kg/injection, schedule: Q04DX002 (ip), vehicle: saline with Tween-80 93 % of control | [16] 104 % of control

COc1ccc2c(c1)CCC(C)(C#N)C2=O (stereo unspecified)
inactive: dose: 100.0 mg/kg/injection, schedule: Q01DX009 (ip), vehicle: saline sonified 91 % of control | dose: 200.0 mg/kg/injection, schedule: Q01DX009 (ip), vehicle: saline sonified 96 % of control | dose: 400.0 mg/kg/injection, schedule: Q01DX009 (ip), vehicle: saline sonified 90 % of control

CCOC(=O)C1c2cc3c(cc2C(c2cc(OC)c(OC)c(OC)c2)C2C(=O)OCC12)OCO3 (stereo unspecified)
inactive: dose: 2.5 mg/kg/injection, schedule: Q01DX009 (ip), vehicle: Klucel (hydroxypropylcellulose) (HPC) 112 % of control | dose: 3.0 mg/kg/injection, schedule: Q01DX009 (ip), vehicle: Klucel (hydroxypropylcellulose) (HPC) 124 % of control | dose: 4.0 mg/kg/injection, schedule: Q01DX009 (ip), vehicle: Klucel (hydroxypropylcellulose) (HPC) 105 % of control | dose: 6.0 mg/kg/injection, schedule: Q01DX009 (ip), vehicle: Klucel (hydroxypropylcellulose) (HPC) 113 % of control | dose: 9.0 mg/kg/injection, schedule: Q01DX009 (ip), vehicle: Klucel (hydroxypropylcellulose) (HPC) 115 % of control | dose: 12.5 mg/kg/injection, schedule: Q01DX009 (ip), vehicle: Klucel (hydroxypropylcellulose) (HPC) 88 % of control

C(=C/c1ccnc(/C=C/c2ccccc2)c1)/c1ccccc1
inactive: dose: 25.0 mg/kg/injection, schedule: Q01DX009 (ip), vehicle: acetone 97 % of control and 99 % of control | dose: 50.0 mg/kg/injection, schedule: Q01DX009 (ip), vehicle: acetone 87 % of control | [2] 91 % of control | dose: 100.0 mg/kg/injection, schedule: Q01DX009 (ip), vehicle: acetone 89 % of control and 92 % of control | dose: 100.0 mg/kg/injection, schedule: Q04DX003 (ip), vehicle: acetone 94 % of control | [3] 94 % of control | dose: 200.0 mg/kg/injection, schedule: Q04DX003 (ip), vehicle: acetone 86 % of control | [4] 94 % of control

CN(C)CCS(=O)(=O)CCc1ccccc1
inactive: dose: 75.0 mg/kg/injection, schedule: Q01DX001 (ip), vehicle: carboxymethylcellulose (CMC) 106 % of control | dose: 150.0 mg/kg/injection, schedule: Q01DX001 (ip), vehicle: carboxymethylcellulose (CMC) 98 % of control | dose: 300.0 mg/kg/injection, schedule: Q01DX001 (ip), vehicle: carboxymethylcellulose (CMC) 101 % of control

C[N+]1=C(/C=C\c2ccc3cccnc3c2O)C(C)(C)c2cc(F)ccc21
inactive: [11] 93 % of control | [12] 95 % of control | [13] 88 % of control

S=C(NCCNC(=S)Nc1ccccc1)Nc1ccccc1
inactive: dose: 50.0 mg/kg/injection, schedule: Q01DX009 (ip), vehicle: saline with Tween-80 98 % of control | [14] 92 % of control | [15] 92 % of control

CCN(CC)CCCC(C)Nc1nc(/C=C/c2ccc(Cl)cc2)nc(Cl)c1-c1ccc(Cl)cc1 (stereo unspecified)
inactive: [2] 89 % of control | [6] 95 % of control | [3] 88 % of control | [8] 101 % of control | [4] 96 % of control | [10] 104 % of control

CSC(=S)NC#N
inactive: [17] 93 % of control | [18] 93 % of control | [19] 101 % of control | [20] 89 % of control | [21] 106 % of control | [22] 98 % of control
